Literature values as cited in patent US7902187B2, “6-substituted 2-(benzimidazolyl)purine and purinone derivatives for immunosuppression” (Wyeth LLC, priority 2006, dated 2011).
Read-outs that look alike come from different tables or passages of the source.

What was measured:
[1] = murine model of heart transplantation; cited from earlier work
[2] = primate model of kidney transplantation; cited from earlier work
Jak3 = target: T1, Jak3 (Homo sapiens, UniProt P52333); conditions: leukemia cells; cited from earlier work
T1 construct: host or cells: leukemia cells (not specified)
T1 sequence (P52333 1-1124): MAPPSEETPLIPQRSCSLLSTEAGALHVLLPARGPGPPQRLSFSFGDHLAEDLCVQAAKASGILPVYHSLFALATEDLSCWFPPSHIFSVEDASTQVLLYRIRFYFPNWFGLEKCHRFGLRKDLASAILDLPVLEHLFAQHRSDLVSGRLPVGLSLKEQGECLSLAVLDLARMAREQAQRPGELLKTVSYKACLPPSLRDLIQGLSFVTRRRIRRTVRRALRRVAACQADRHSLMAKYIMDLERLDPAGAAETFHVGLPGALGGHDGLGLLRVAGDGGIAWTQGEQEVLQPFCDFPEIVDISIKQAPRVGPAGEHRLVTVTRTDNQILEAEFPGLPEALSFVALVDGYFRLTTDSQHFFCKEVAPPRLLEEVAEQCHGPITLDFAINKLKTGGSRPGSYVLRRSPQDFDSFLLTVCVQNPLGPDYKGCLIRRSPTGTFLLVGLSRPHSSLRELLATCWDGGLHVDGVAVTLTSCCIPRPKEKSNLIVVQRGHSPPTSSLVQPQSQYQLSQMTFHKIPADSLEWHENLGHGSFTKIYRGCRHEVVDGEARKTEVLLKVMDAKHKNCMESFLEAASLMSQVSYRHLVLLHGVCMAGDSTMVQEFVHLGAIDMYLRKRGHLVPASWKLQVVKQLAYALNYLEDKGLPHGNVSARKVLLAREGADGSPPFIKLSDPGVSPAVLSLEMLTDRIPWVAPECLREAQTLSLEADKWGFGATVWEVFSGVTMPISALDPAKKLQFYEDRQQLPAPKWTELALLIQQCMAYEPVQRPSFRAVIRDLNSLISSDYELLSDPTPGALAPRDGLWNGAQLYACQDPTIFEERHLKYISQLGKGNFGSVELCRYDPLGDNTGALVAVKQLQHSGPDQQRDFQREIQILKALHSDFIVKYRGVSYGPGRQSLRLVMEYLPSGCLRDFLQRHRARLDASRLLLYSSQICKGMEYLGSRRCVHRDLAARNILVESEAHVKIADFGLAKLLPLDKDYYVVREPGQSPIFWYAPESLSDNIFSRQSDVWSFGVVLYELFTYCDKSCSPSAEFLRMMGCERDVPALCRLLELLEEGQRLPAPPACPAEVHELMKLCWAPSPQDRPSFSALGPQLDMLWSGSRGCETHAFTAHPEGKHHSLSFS

[3] = NOD mouse; cited from earlier work
[4] = in vivo; cited from earlier work

Row | Compound | animal survival [1] | animal survival [2] | selectivity of Jak3 inhibition (Jak3) | spontaneous autoimmune diabetes development [3] | severity of GVHD [4]
1 | C[C@@H]1CCN(C(=O)CC#N)C[C@@H]1N(C)c1ncnc2[nH]ccc12 [CP-690,550] | prolong animal survival | prolong animal survival | – | – | –
2 | COc1cc2ncnc(Nc3ccc(O)c(Br)c3)c2cc1OC [WHI-P154] | – | – | selective inhibitors of Jak3 | – | –
3 | COc1cc2ncnc(Nc3ccc(O)cc3)c2cc1OC [JANEX-1] | – | – | selective inhibitors of Jak3 | prevent spontaneous autoimmune diabetes development | attenuate the severity of GVHD
